These are literature values, as cited in PMC9441699 (Frontiers in Cellular and Infection Microbiology, 2022).

Where two headings read alike, the source gives them in different places.

Data set [1] has as its system HcoV-NL63.
Data set [2] relates to HcoV-OC43. The conditions noted are these: 2019.
Data set [3] has as its system MERS-CoV. The note with it: 2019.
The subject of data set [4] is SARS-CoV-PLpro.
Data set [5] deals with SARS-CoV-3CLpro.
The subject of data set [6] is SARS-CoV helicase.
The target in data set [7] is angiotensin converting enzyme from rabbit lung. Further details: method as in Yu et al., 2012. The conditions noted are these: 0.01-10 µM; ref Yu et al., 2012.
Data set [8] has as its system Vero cells. More on the design: method as in Ho et al., 2007. The conditions noted are these: 0, 10, 50, 100, 200 and 400 µ/mL; ref Ho et al., 2007.
Data set [9] relates to HcoV-NL63 inLLC-MK2 cells. Further details: method as in Weng et al., 2019. The conditions noted are these: 0, 10, 50,100 µM/36h; ref Weng et al., 2019; read-out: Inhibition of viral cytopathicity IC50. On the technique in general: Damage to the host cells serves as the signal in cytopathic effect assays.
Data set [10] relates to SARS-CoV. The note with it: read-out: EC50 SARS-CoV viral replication.
Data set [11] relates to interaction of S protein with ACE2. More on the design: method as in Ho et al., 2007; dose or concentration left out as unconfirmed. The conditions noted are these: ref Ho et al., 2007.
For data set [12], the system named is SARS-CoV. The note with it: ref Li et al., 2005.
Data set [13] deals with RdRp Dengue virus. More on the design: method as in Coulerie et al., 2013. The note with it: in vitro; ref Coulerie et al., 2013.
Where [14] appears, read: tanshinones from Salvia miltiorrhiza, read-out: IC50 against PLpro.
Where [15] appears, read: 1, 2.5, 20 µM/16h, ref Jo et al., 2020, read-out: IC50.

With `CC[C@H]1CN2CCc3cc(OC)c(OC)cc3[C@@H]2C[C@@H]1C[C@H]1NCCc2cc(OC)c(OC)cc21` [Emetine, reference compound], the EC50 in [1] (ref Weber and Opatz, 2019, read-out: EC50 HcoV-NL63) was 1.43 µM; in data set [2] (ref Weber and Opatz), 0.3 µM; in data set [3] (ref Weber and Opatz), 0.34 µM.

On to `O=C(/C=C/CCc1ccc(O)c(O)c1)CCc1ccc(O)c(O)c1` [Ligand L01, Hirsutenone], for which, in data set [4] (0-200 µM/60min, ref Park et al., 2012a, read-out: IC50), the half-inhibitory concentration (IC50) is 4.1 µM.

Turning to `C=C(C)C(Cc1c(OC)ccc(C(=O)/C=C/c2ccc(O)cc2)c1O)OO` (stereo not shown) [Ligand L02, Xanthoangelol E], the 50% inhibitory concentration (IC50) is 11.4 µM in [5] (0, 12.5, 25, 50 µM, ref Park et al., 2016, read-out: Inhibition of SARS-CoV-3CLpro activity IC50) and 1.2 µM in data set [4] (0, 12.5, 25, 50 µM, ref Park et al., 2016, read-out: Inhibition of SARS-CoV-PLpro activity IC50).

For `O=c1c(O)c(-c2cc(O)c(O)c(O)c2)oc2cc(O)cc(O)c12` [Ligand L03, Myricetin], the “inhibitory effect against SARS-CoV helicase” value in data set [6] was “moderate inhibitory impacts”. Also, the IC50 in [7] was 2.71 µM.

For the molecule `CC(C)=CCc1cc2c(cc1O)oc(=O)c1c3ccc(O)cc3oc21` [Ligand L04, Psoralidin], the IC50 in data set [4] (0-100 µM, ref Kim et al., 2014, read-out: IC50) is 4.2 µM.

Consider `Oc1cc(O)cc(Oc2c(O)cc(O)c3c2Oc2c(O)cc(Oc4c(O)cc(Oc5c(O)cc(O)c6c5Oc5c(O)cc(O)cc5O6)cc4O)cc2O3)c1` [Ligand L05, Dieckol], for which, in data set [5] (0-200 µM, ref Park et al., 2013, read-out: IC50), the IC50 is 2.7 µM.

Take `COc1cc([C@H]2Oc3cc4c(c(O)c3C(=O)[C@@H]2O)CCC(C)(CCCC(C)(C)O)O4)ccc1O` (stereo partly shown) [Ligand L06, Tomentin E]: the IC50 in [4] (0, 6.25, 12.5, 25 µM, ref Cho et al., 2013, read-out: IC50) is 5 µM.

For `Cc1cc(O)c2c(c1)C(=O)c1cc(O)cc(O)c1C2=O` [Ligand L07, Emodin], the IC50 in data set [8] is 200 µM.

`C[C@H]1COC2=C1C(=O)C(=O)c1c2ccc2c1CCCC2(C)C` [Ligand L08, Cryptotanshinone]: in [4] (0-200 µM/30min, ref Park et al., 2012b, read-out: IC50), the IC50 was 0.8 µM.

With `Cc1cccc2c3c(ccc12)C1=C(C(=O)C3=O)[C@@H](C)CO1` [Ligand L09, Dihydrotanshinone l,], the IC50 is 14.4 µM in data set [5] (0-200 µM/60min, ref Park et al., 2012b, read-out: IC50) and 4.9 µM in [4] (setting [14]).

On to `O=C(O)/C=C/c1ccc(O)c(O)c1` [Ligand L10, Caffeic acid], for which the IC50 in [9] was 3.54 µM.

In the case of `O=C(/C=C/c1ccc(O)c(O)c1)O[C@@H]1C[C@](O)(C(=O)O)C[C@@H](O)[C@H]1O` [Ligand L11, Chlorogenic acid], the IC50 in data set [9] is 43.5 µM.

For the molecule `O=C(O)c1cc(O)c(O)c(O)c1` [Ligand L12, Gallic acid], the IC50 in [9] was 71.5 µM.

Consider `O=c1cc(-c2ccc(O)cc2)oc2cc(O)c(O)c(O)c12` [Ligand L13, Scutellarein], for which, in data set [6], the “inhibitory effect against SARS-CoV helicase” value is listed as “moderate inhibitory impacts”. Also, in data set [6] (0.01-10 µM, In vitro, ref Yu et al., 2012), the IC50 was 0.86 µM.

`O=c1cc(-c2ccc(O)c(-c3c(O)cc(O)c4c(=O)cc(-c5ccc(O)cc5)oc34)c2)oc2cc(O)cc(O)c12` [Ligand L14, Amentoflavone]: the IC50 in data set [5] (0-300 µM, ref Ryu et al., 2010a, read-out: IC50) is 8.3 µM.

Regarding `COc1cc(/C=C/C(=O)NC(O)C(=O)c2ccc(O)cc2)ccc1O` (stereo not shown) [Ligand L15, Terrestrimine], the IC50 in [4] (1,10,100,1000 µM, ref Song et al., 2014, read-out: IC50) was 15.8 µM.

For the molecule `O=c1c(O)c(-c2ccc(O)cc2)oc2c(O)c(O)cc(O)c12` [Ligand L16, Herbacetin], the IC50 in data set [5] (setting [15]) was 33.2 µM.

Consider `COc1ccc(-c2cc(=O)c3c(O)c(OC)c(O[C@@H]4O[C@H](CO[C@@H]5O[C@@H](C)[C@H](O)[C@@H](O)[C@H]5O)[C@@H](O)[C@H](O)[C@H]4O)cc3o2)cc1` [Ligand L17, Pectolinarin], for which, in data set [5] (setting [15]), the IC50 was 37.8 µM.

For the molecule `C[C@@H]1O[C@@H](O[C@H]2[C@H](Oc3cc(O)c4c(=O)cc(-c5ccc(O)cc5)oc4c3)O[C@H](CO)[C@@H](O)[C@@H]2O)[C@H](O)[C@H](O)[C@H]1O` [Ligand L18, Rhoifolin], the IC50 in data set [5] (setting [15]) was 27.4 µM.

For `COC(=O)[C@H]1[C@H]2C[C@@H]3c4[nH]c5cc(OC)ccc5c4CCN3C[C@H]2C[C@@H](OC(=O)c2cc(OC)c(OC)c(OC)c2)[C@@H]1OC` [Reserpine], the EC50 in data set [10] was 3.4 µM.

For the molecule `CC[C@H](CC[C@@H](C)[C@H]1CC[C@H]2[C@@H]3CC=C4C[C@@H](O)CC[C@]4(C)[C@H]3CC[C@]12C)C(C)C` [Sitosternol], the EC50 in [1] (ref Lin et al., 2005, read-out: EC50 against human coronavirus (HCoV-NL63)) is 1210 µM.

As to `O=c1cc(-c2ccccc2)oc2cc(O)cc(O)c12` [chrysin], in [11], the “effect on the interaction of S protein with ACE2” value is recorded as “weak inhibitory effect”.

As to `O[C@H]1[C@H]2c3cc4c(cc3CN3CCC(=C[C@@H]1O)[C@H]23)OCO4` [lycorine], the EC50 in data set [1] (in vitro, ref Shen et al., 2019, read-out: EC50 HcoV-NL63) is 0.47 µM; in data set [12] (MTS test, read-out: EC50 against SARS-CoV), 0.0157 ± 0.0012 µM; in data set [2] (in vitro, ref Shen et al.), 0.15 µM; in data set [3] (in vitro, ref Shen et al.), 1.63 µM. The IC50 in [12] (Prasansuklab et al., 2020, read-out: IC50 anti-SARS-CoV) is 0.0157 µM.

Turning to `COc1cc(O)c2c(=O)cc(-c3ccc(O)cc3)oc2c1-c1cc(-c2cc(=O)c3c(O)cc(O)cc3o2)ccc1O` [sotetsuflavone], the IC50 in data set [13] is 0.16 µM.

For `Cc1coc2c1C(=O)C(=O)c1c-2ccc2c1CCCC2(C)C` [tanshinone IIA], the IC50 in [4] (setting [14]) was 1.6 µM.

Take `COc1ccc(C(=O)/C=C/c2ccc(O)cc2)c(O)c1C/C=C(\C)CCC=C(C)C` [xanthoangelol F]: the IC50 in data set [4] (noncompetitive inhibition, ref Park et al., 2016, read-out: IC50 PLpro) was 5.6 µM.

Consider curcumin, for which the IC50 in data set [4] (diarylheptanoids, ref Park et al., 2012a, read-out: IC50 PLpro) is 5.7 µM.

Broadly, the EC50 is the concentration needed to bring the measured effect to its halfway point. For orientation: IC50 means the midpoint of a concentration-inhibition curve.
